Experimental data taken from patent US9550763B2, “Heterocyclic ring and carbocyclic derivative” (Shionogi & Co., Ltd., priority 2012, dated 2017).

Experiments:
Type in all cases: cell-based
[1] = molecular target: T1, human P2X3 receptor (Homo sapiens (Human), UniProt P56373); assay: Evaluation of human P2X3 receptor inhibitory activity (Test Example 1-2, FLIPR 384, 384-well, 150 nM ATP)
Outline: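 Human P2X3 stably expressed in C6BU-1 cells, Fluo-3-AM loaded, read on FLIPR at pH 7.5 HEPES buffer. Compound added 5 min before 150 nM ATP; peak/baseline fluorescence over 4 min gave inhibition (buffer instead of ATP = 100%), from which IC50 was derived.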

[2] = molecular target: Rat P2X3 receptor (Rattus norvegicus (Rat), UniProt P49654); assay: Evaluation of rat P2X3 receptor inhibitory activity in the presence of rat serum albumin (RSA) (Test Example 3-2); conditions: rat P2X3 receptor in C6BU-1 cells
Protocol: Rat P2X3 receptor gene (GenBank accession number NM_031075) was expressed in C6BU-1 cell. The C6BU-1 cells were seeded in a 96-well microtiter plate at a concentration of 2500 cells/well and cultured in the medium (7.0% fetal bovine serum, 7.0% horse serum, and 1% antibiotic and antifungal in DMEM) for one day at 37° C. under 5% carbon dioxide atmosphere. The plasmid was transfected into the cells using transfection reagent FuGENEG (Roche). The transfected cells were cultured in the medium for one day at 37° C. under 5% carbon dioxide atmosphere. The medium was replaced with 4 μM Fluo-3-AM solution (pH7.5) containing 20 mM HEPES, […], 5.27 mM KCl, 0.9 mM MgCl2, 1.26 mM CaCl2, 5.6 mM D-glucose, 2.5 mM probenecid, 1% BSA, and 0.08% Pluronic F-127, and incubated at 37° C. under 5% dioxide carbon atmosphere for one hour. The plate was washed with washing buffer (20 mM HEPES, 137 mM NaCl, 5.27 mM KCl, 0.9 mM MgCl2, 1.26 mM CaCl2, 5.6 mM D-glucose, 2.5 mM probenecid, pH7.5), and each well was added with 40 μL of this buffer. The plate was placed in High-Throughput Screening System FDSS 3000 (Hamamatsu Photonics K.K.). Measurement of fluorescence intensity by FDSS 3000 was started, and 40 μL of DMSO solutions containing 1% RSA (final concentrations) and different concentrations of the test compound as prepared by dilution with dilution buffer (20 mM HEPES, 137 mM NaCl, 5.27 mM KCl, 0.9 mM MgCl2, 1.26 mM CaCl2, 5.6 mM D-glucose, 2.5 mM probenecid, 0.1% Pluronic F-127, pH7.5) were dispensed to each well through the built-in automatic dispenser. Five minutes after, 50 nM ATP solution (50 μL) prepared by dilution with the dilution buffer was dispensed through the built-in automatic dispenser, and the measurement of fluorescence intensity was continued for 4 min. For each well, the specific maximum fluorescence intensity was calculated as the ratio of the maximum fluorescence intensity after addition of the ATP solution to the fluorescence intensity at the starting of the measurement. The 50% inhibitory concentration (IC50) was calculated under the assumption that the specific maximum fluorescence intensity without test compound is 0% inhibition and that the specific maximum fluorescence intensity when the dilution buffer was added in place of ATP solution is 100% inhibition, to evaluate the inhibitory activity of the test compound. FDSS software (Hamamatsu Photonics K.K.) was used for calculation of the specific maximum fluorescence intensity. IC50 was calculated using Microsoft Excel (Microsoft Corporation) and XLfit (idbs Ltd.).

[3] = molecular target: T1, human P2X3 receptor; assay: Evaluation of human P2X3 receptor inhibitory activity (Test Example 1-1, FDSS 3000, 96-well, 50 nM ATP); conditions: human P2X3 receptor in C6BU-1 cells; Test Example 1-1 (compounds I-001 to I-300)
Outline: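 C6BU-1 cells stably expressing human P2X3, loaded with 4 μM Fluo-3-AM (pH 7.5), preincubated 5 min with compound before 50 nM ATP challenge; fluorescence followed 4 min on FDSS 3000. IC50 derived from peak/baseline fluorescence ratio, no-compound as 0% and buffer-instead-of-ATP as 100% inhibition.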

[4] = human P2X3 receptor in C6BU-1 cells, Test Example 1-2 (compounds I-301 to I-483), read-out: P2X3 IC50

Chain of Rat P2X3 receptor (P49654 whole entry): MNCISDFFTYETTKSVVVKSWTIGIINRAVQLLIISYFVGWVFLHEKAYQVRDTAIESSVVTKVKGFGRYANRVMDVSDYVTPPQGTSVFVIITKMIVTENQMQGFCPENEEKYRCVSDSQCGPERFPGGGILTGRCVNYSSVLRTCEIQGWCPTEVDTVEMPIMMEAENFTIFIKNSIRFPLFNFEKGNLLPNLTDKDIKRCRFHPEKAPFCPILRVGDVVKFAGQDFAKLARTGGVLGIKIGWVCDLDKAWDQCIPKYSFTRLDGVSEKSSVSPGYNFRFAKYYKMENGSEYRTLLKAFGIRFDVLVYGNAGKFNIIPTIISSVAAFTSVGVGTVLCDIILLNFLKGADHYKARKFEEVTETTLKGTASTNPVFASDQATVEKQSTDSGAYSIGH
T1 sequence (P56373 whole entry): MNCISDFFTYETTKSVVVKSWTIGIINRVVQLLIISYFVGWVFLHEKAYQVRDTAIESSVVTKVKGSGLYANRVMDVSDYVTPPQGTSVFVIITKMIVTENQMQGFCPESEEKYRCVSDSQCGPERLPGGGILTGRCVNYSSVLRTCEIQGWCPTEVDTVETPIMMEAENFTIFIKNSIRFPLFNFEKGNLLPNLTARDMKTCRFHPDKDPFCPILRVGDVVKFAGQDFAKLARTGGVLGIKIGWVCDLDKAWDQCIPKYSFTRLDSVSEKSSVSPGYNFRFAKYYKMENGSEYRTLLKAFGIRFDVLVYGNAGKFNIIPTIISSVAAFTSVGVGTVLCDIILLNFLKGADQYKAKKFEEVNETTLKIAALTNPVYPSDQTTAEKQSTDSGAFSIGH

SMILES	IC50 [1, 4] [nM]	further results
Cc1cc(Oc2ccc(/N=c3\[nH]cc(NC(=O)C4CCOCC4)c(=O)n3Cc3ccc(Cl)cc3)cc2C)no1 [Compound I-304]	12	IC50 [2]: 12 nM
Cc1cc(/N=c2\[nH]cc(NC(=O)C3CCOCC3)c(=O)n2Cc2ccc(Cl)cc2)ccc1Oc1ncccc1F [Compound I-162]		IC50 [3]: 3 nM; IC50 [2]: 13 nM
CCCn1c(=O)cc(Nc2ccc(Oc3cccc(C(=O)O)n3)cc2)n(Cc2ccc(Cl)cc2)c1=O [Compound I-165]		IC50 [3]: 3 nM; IC50 [2]: 17 nM
Cc1ccc(Oc2ccc(Nc3nc(=O)c(C(=O)NC4CCOCC4)cn3Cc3ccc(Cl)cc3)cc2)nn1 [Compound I-159]		IC50 [3]: 7 nM; IC50 [2]: 23 nM
O=c1c(NC(=O)[C@H]2C[C@H](O)C2)c[nH]/c(=N\c2ccc(Oc3ccc(F)cn3)cc2)n1Cc1ccc(Cl)cc1 [Compound I-215]		IC50 [3]: 4 nM; IC50 [2]: 5 nM
N#Cc1cnc(Oc2ccc(Nc3nc(=O)c(C(=O)NC4CCOCC4)cn3Cc3ccc(Cl)cc3)cc2)cn1 [Compound I-230]		IC50 [3]: 9 nM; IC50 [2]: 10 nM
O=C(O)c1cc(Oc2ccc(/N=c3\[nH]cc(Nc4ccon4)c(=O)n3Cc3ccc(Cl)cc3)cc2)ccn1 [Compound I-354]	7	IC50 [2]: 14 nM
CCC(=O)Nc1c[nH]/c(=N\c2ccc(Oc3ccc(C(N)=O)nn3)cc2)n(Cc2ccc(Cl)cc2)c1=O [Compound I-309]	9	IC50 [2]: 22 nM
NC(=O)c1cccc(Oc2ccc(/N=c3\[nH]cc(C4CCOCC4)c(=O)n3Cc3ccc(Cl)cc3)cc2)n1 [Compound I-483]	17	
Cc1noc(-c2c[nH]/c(=N\c3ccc(Oc4ccon4)cc3)n(Cc3ccc(Cl)cc3)c2=O)n1 [Compound I-345]	38	
O=C(N[C@H]1COC[C@@H]1O)c1cn(Cc2ccc(Cl)cc2)c(Nc2ccc(Oc3cccc(F)n3)cc2)nc1=O [Compound I-394]	11	
COCCCNC(=O)c1cn(Cc2ccc(Cl)cc2)c(Nc2ccc(Oc3cccc(F)n3)cc2)nc1=O [Compound I-373]	136	
COC(=O)c1cc(Oc2ccc(/N=c3\[nH]cc(Nc4ccon4)c(=O)n3Cc3ccc(Cl)cc3)cc2)ccn1 [Compound I-320]	19	
CCC(=O)Nc1c[nH]/c(=N\c2ccc(Oc3cc(C)cnn3)cc2)n(Cc2ccc(Cl)cc2)c1=O [Compound I-433]	99	
Cc1noc(-c2c[nH]/c(=N\c3ccc(Oc4cccc(C(=O)O)n4)cc3)n(Cc3ccc(Cl)cc3)c2=O)n1 [Compound I-313]	5	IC50 [2]: 24 nM
CN(C)C(=O)c1c[nH]/c(=N\c2ccc(Oc3ccon3)cc2)n(Cc2ccc(Cl)cc2)c1=O [Compound I-346]	346	
O=C(O)c1cccc(Oc2ccc(/N=c3\[nH]cc(C4CCOCC4)c(=O)n3Cc3ccc(Cl)cc3)cc2)n1 [Compound I-478]	5	
O=C(NCc1ccoc1)c1cn(Cc2ccc(Cl)cc2)c(Nc2ccc(Oc3cccc(F)n3)cc2)nc1=O [Compound I-419]	55	
Cc1nc(Nc2cc(=O)n(CC(F)(F)C(=O)O)c(=O)n2Cc2ccc(Cl)cc2)ccc1Oc1ccc(F)cn1 [Compound I-405]	5	
COC(=O)c1ccc(Oc2ccc(/N=c3\[nH]cc(C(C)C)c(=O)n3Cc3ccc(Cl)cc3)cc2)nc1 [Compound I-366]	91	
COc1cn(Cc2ccc(Cl)cc2)c(Nc2ccc(Oc3cccc(C(N)=O)n3)cc2)nc1=O [Compound I-403]	243	
O=C(Nc1cc[nH]n1)c1cn(Cc2ccc(Cl)cc2)c(Nc2ccc(Oc3cccc(F)n3)cc2)nc1=O [Compound I-421]	17	
O=C(O)c1coc(-c2c[nH]/c(=N\c3ccc(Oc4ccon4)cc3)n(Cc3ccc(Cl)cc3)c2=O)n1 [Compound I-454]	160	

SMILES	IC50 [1, 4] [nM]	further results
O=C(NCCCO)c1cn(Cc2ccc(Cl)cc2)c(Nc2ccc(Oc3cccc(F)n3)cc2)nc1=O [Compound I-418]	45	
Cn1ccc(NC(=O)c2cn(Cc3ccc(Cl)cc3)c(Nc3ccc(Oc4cccc(F)n4)cc3)nc2=O)n1 [Compound I-378]	20	
COC(=O)c1cncc(Oc2ccc(/N=c3\[nH]cc(C(C)C)c(=O)n3Cc3ccc(Cl)cc3)cc2)c1 [Compound I-367]	471	
O=c1c(-c2nnco2)c[nH]/c(=N\c2ccc(Oc3ccon3)cc2)n1Cc1ccc(Cl)cc1 [Compound I-439]	47	
COC(=O)c1ccc(Oc2ccc(/N=c3\[nH]cc(-c4nc(C)no4)c(=O)n3Cc3ccc(Cl)cc3)cc2)nn1 [Compound I-312]	7	
Cc1nc(Nc2cc(=O)n(C[C@H](C)C(=O)O)c(=O)n2Cc2ccc(Cl)cc2)ccc1Oc1ccc(F)cn1 [Compound I-363]	8	
Cc1nc(Nc2cc(=O)n(CC(C)(C)C(=O)O)c(=O)n2C[C@H]2CC[C@H](C)CC2)ccc1Oc1ccc(F)cn1 [Compound I-445]	7	
CCC(=O)Nc1c[nH]/c(=N\c2ccc(Oc3cccc(CC(=O)O)c3)cc2)n(Cc2ccc(Cl)cc2)c1=O [Compound I-355]	53	
COC(=O)c1cccc(Oc2ccc(Nc3ccn(C(C)C)c(=O)c3Cc3ccc(Cl)cc3)cc2)n1 [Compound I-465, 3-(4-chloro-benzyl)-1-isopropyl-4-[4-(6-methoxycarbonyl-2-pyridyloxy)phenylamino]pyridin-2(1H)-one]		IC50 ([1]; C6BU-1 cell transfected with human P2X3 receptor gene, method of Test Example 1-2 (compounds I-301 to I-483), read-out: IC50 (human P2X3 receptor inhibitory activity)): < 30000 nM
CNC(=O)c1noc(-c2c[nH]/c(=N\c3ccc(Oc4ccon4)cc3)n(Cc3ccc(Cl)cc3)c2=O)n1 [Compound I-442]	80	
COCCn1c(=O)cc(Nc2ccc(Oc3cccc(C#N)n3)c(C)n2)n(Cc2ccc(Cl)cc2)c1=O [Compound I-322]	5	
Cc1ccc(Oc2ccc(/N=c3\[nH]cc(NC(=O)[C@H]4C[C@H](O)C4)c(=O)n3Cc3ccc(Cl)cc3)cc2)nn1 [Compound I-308]	5	IC50 [2]: 5 nM
N#Cc1cccc(Oc2ccc(/N=c3\[nH]cc(Nc4ccon4)c(=O)n3Cc3ccc(Cl)cc3)cc2)n1 [Compound I-319]	19	
O=C(NC1CCCOC1)c1cn(Cc2ccc(Cl)cc2)c(Nc2ccc(Oc3cccc(F)n3)cc2)nc1=O (centres unmarked) [Compound I-383]	13	
CC(C)n1ccc(Nc2ccc(Oc3cccc(C(=O)O)n3)cc2)c(Cc2ccc(Cl)cc2)c1=O [Compound I-466]	597	
CCC(=O)Nc1c[nH]/c(=N\c2ccc(Oc3cccc(CCC(=O)O)c3)cc2)n(Cc2ccc(Cl)cc2)c1=O [Compound I-337]	76	
Cc1c[nH]c2ccc(Nc3ncc(NC(=O)C4CCOCC4)c(=O)n3Cc3ccc(Cl)cc3)cc12 [Compound I-414]	392	
Cc1nc(Nc2cc(=O)n(C(C)C)c(=O)n2Cc2ccc(Cl)cc2)ccc1Oc1cccc(C(=O)O)n1 [Compound I-341]	10	
CC(C)c1c[nH]/c(=N\c2ccc(Oc3cccc(C#N)n3)cc2)n(Cc2ccc(Cl)cc2)c1=O [Compound I-321]	150	
CC(=O)OCc1nnc(-c2c[nH]/c(=N\c3ccc(Oc4ccon4)cc3)n(Cc3ccc(Cl)cc3)c2=O)o1 [Compound I-348]	76	
C#CCNC(=O)c1c[nH]/c(=N\c2ccc(Oc3ccc(F)cn3)cc2)n(Cc2ccc(Cl)cc2)c1=O [Compound I-427]	5	
CCOC(=O)c1cnc(Oc2ccc(/N=c3\[nH]cc(C(C)C)c(=O)n3Cc3ccc(Cl)cc3)cc2)s1 [Compound I-410]	626	
COc1cn(Cc2ccc(Cl)cc2)c(Nc2ccc(Oc3cccc(F)n3)cc2)nc1=O [Compound I-351, 1-(4-chlorobenzyl)-2-[4-(6-fluoro-2-pyridyloxy)phenylamino]-5-methoxypyrimidin-4(1H)-one]	98	
